Measured values reported in patent US10731164B2, “Aptamer conjugates with N-heterocyclic carbene metal complexes for targeted drug delivery” (University of Florida Research Foundation, Inc., priority 2014, dated 2020).

Columns and labels:
[1] = test system: CCRF-CEM cell line; experiment: MTS cell viability assay, CCRF-CEM cell line; assay type: cell-based; conditions: 4 h incubation then 48 h
Protocol: All cell lines used in this research were cultured in American Type Culture Collection recommended medium, with 10% fetal bovine serum (Invitrogen, Carlsbad, Calif.) and 0.5 mg/mL penicillin-streptomycin (American Type Culture Collection) at 37° C. under a 5% CO2 atmosphere. CCRF-CEM (T-cell line) and K562 ([…]) were cultured in RPMI 1640 medium; MDA-MB-231 (breast cancer cells were cultured in L-15 medium; DU145 (prostate cancer cell) was cultured in EMEM medium; Hela (cervical cancer cell), HEK293 (human kidney cell) and HU1545v (human untransformed liver cell) were cultured in DMEM medium. Cells were washed before and after incubation with washing buffer [4.5 g/L glucose and 5 mM MgCl2 in Dulbecco's PBS with calcium chloride and magnesium chloride (Sigma-Aldrich)]. Binding buffer was prepared by adding yeast tRNA (0.1 mg/mL; Sigma-Aldrich) and BSA (1 mg/mL; Fisher Scientific) to the washing buffer to reduce background binding. All reagents for buffer preparation and HPLC purification came from Fisher Scientific. […]
A cell viability assay to measure the cytotoxicity of the aptamer-drug conjugate 21 and aptamer-ligand conjugate 28 were performed, as indicated in FIG. 13. […] The assay was allotted 2 h at 37° C. for development, and then the 490 nm absorbance of each well was collected on a Tecan plate 110 reader. […]

[2] = test system: cervical carcinoma (HeLa) cells; conditions: background; cited from earlier work
[3] = test system: cis-platin resistant cancer cells; conditions: background; cited from earlier work
[4] = test system: CCRF-CEM cells; experiment: Flow cytometry analysis, CCRF-CEM cells; assay type: cell-based; conditions: 250 nM, 2 h at 4° C.
Protocol: Flow Cytometry Analysis was conducted as follows. Cells were plated in a 35 mm cell culture dish (Corning Incorporated, Corning, N.Y., USA) and grown to around 80% confluency for 24 h before the experiments. Cells were washed twice with 1 mL PBS and then incubated with the prepared aptamer-drug conjugate and LIB-drug conjugate at the concentration of 250 nM for 2 h at 4° C. After incubation, cells were washed with washing buffer three times, dispersed in 80 μL binding buffer, and finally subjected to flow cytometry analysis using a FACScan cytometer (Becton Dickinson Immunocytometry Systems, San Jose, Calif., USA). Fluorescence was determined by counting 30,000 events, and data were analyzed with FlowJo software.
Flow cytometry assays of conjugate 30 (sgc8c-27) with the K562 cell line (left) and the CCRF-CEM cell line are shown in FIGS. 26A and 26B, respectively. Random aptamer sequences conjugated to 27 to create LIB-27 were used as negative control. […] In Similar manner, flow cytometry analysis of MDA-MB-231 cell, PC3 cell, HEK293 cell and HU1545 cell, FIGS. 27A-27D, respectively, after incubated with 32 (AS1411-29) were conducted. AS1411 aptamer was used as positive control, and random library sequences was used as negative control.

1-(anthracen-9-ylmethyl)-3-(4-N-sgc8c-aptamer-carbamoylbenzyl) benzo[d]imidazolium gold(I) chloride [complex 27]
IC50 [1]: 31.1 ± 2.11 µM

CC(=O)OC[C@H]1O[C@@H]([S-])[C@H](OC(C)=O)[C@@H](OC(C)=O)[C@@H]1OC(C)=O.CCP(CC)CC.[Au+] [Auranofin]
activity against HeLa cells in vitro [2]: highly active
effect against cis-platin resistant cancer cells [3]: effective

sgc8c: leukemia-specific aptamer 5′-ATCTAACTGCTGCGCCGCCGGGAAAATACTGTACGGTTAGA-3′ (ATCTAACTGCTGCGCCGCCGGGAAAATACTGTACGGTTAGA; listed as DNA, chemistry not fully specified)
fluorescence intensity of cells (flow cytometry) [4]: fluorescence intensity increases
